Results: patent US10222381B2, “Water-soluble peptide fluorescence material” (NATIONAL CHIAO TUNG UNIVERSITY, priority 2015, dated 2019)
One block for each compound: values may come before it. Residues, ends and D or L forms follow the SMILES beside them. *: point of attachment. X1 = O=C1c2cccc3c(N4CCCCC4)ccc(c23)C(=O)C1CC(=O)*

Assays:
[1] = Survival rate of HeLa cells; format: cell-based; settings: human
From the text: (§1) The above experimental result is much better than a standard of IC50 (50% inhibitory concentration). IC50 represents a concentration of a drug that is required for 50% survival rate of the cells, which means that a certain concentration of a drug is used to detect a cell mortality rate of 50%, and the certain concentration is also referred as 50% inhibitory concentration. Described in different ways, when a ratio of death cells to original cells is 50%, the corresponding concentration is 50% inhibitory concentration. The water-soluble peptide fluorescence material of the present disclosure has low toxicity and excellent compatibility to PC-3 cells, so as to avoid mass mortality of the cells. In addition, HeLa, MCF-7, CTXTAN2, PC12, WSI, 3T3L1 cells are also tested. The water-soluble peptide fluorescence material has excellent compatibility with these cells since the survival rate of these cell are all over 50%.

[2] = Survival rate of 3T3L1 cells; format: cell-based; settings: mouse
From the text: as §1

[3] = Survival rate of PC-3 cells in the fluorescence material; format: cell-based; settings: human, two days, PC-3 cell
From the text: as §1

[4] = Survival rate of WSI cells; format: cell-based; settings: human
From the text: as §1

[5] = Survival rate of PC12 cells; format: cell-based; settings: rat
From the text: as §1

[6] = tested on: acidic cells in living cells; assay: Fluorescence marking of acidic cells in living cells, compared with Lysotracker; format: cell-based; settings: for fluorescence appearing at the acidic cells: living cells, FIGS. 1A/1B
From the text: The water-soluble peptide fluorescence material is designed to illuminate in acid, neutral or weak base environment, and following embodiments give an example illuminating in acid environment. FIGS. 1A, 1B and 1C are comparative pictures between a water-soluble peptide fluorescence material of the present disclosure and a traditional fluorescence material at the same concentration. The water-soluble peptide fluorescence material has a structure of following formula including a peptide sequence Phe-Asp-Gly-Glu-Ala (SEQ ID NO: 5):
Continuing in FIG. 1B to compare with FIG. 1A, FIG. 1B uses the water-soluble peptide fluorescence material of the present disclosure, which is also used to mark acidic cells in living cells. […] Accordingly, the water-soluble peptide fluorescence material is suitable for a biological fluorescence probe, so as to detect and mark positions of the acidic cells.
At the same concentration, the water-soluble peptide fluorescence material has the greater fluorescence intensity than that of Lysotracker. On this base, a dose of the water-soluble peptide fluorescence material could be decreased to achieve the same fluorescence intensity with the Lysotracker, so as to decrease medical costs and damage to human bodies.

[7] = Survival rate of CTXTAN2 cells; format: cell-based; settings: rat
From the text: as §1

[8] = Survival rate of MCF-7 cells; format: cell-based; settings: human
From the text: as §1

[9] = Fluorescence intensity and emission wavelength at different pH values; format: physicochemical
From the text: In Experimental Examples 210, 220, 230, 240, 250, 260, 270 and 280, the above water-soluble peptide fluorescence material is respectively placed in environments having a pH value of 10, 9, 8, 7, 6, 5, 4 and 3 for testing. In Experimental Examples 210 to 230, the water-soluble peptide fluorescence material is respectively placed in environments having the pH value of 10, 9 and 8.
Continuing in FIG. 5, which illustrates a fluorescence intensity and an emission wavelength of the water-soluble peptide fluorescence material of formula (III-10) at different pH values. In Experimental Examples 510, 520, 530, 540, 550, 560, 570 and 580, the water-soluble peptide fluorescence material of formula (III-10) is respectively placed in environments having a pH value of 10, 9, 8, 7, 6, 5, 4 and 3 for testing. In Experimental Examples 510 to 560, the water-soluble peptide fluorescence material is placed in environments having the pH value of 10 to 5, and two emission peaks are shown in FIG. 5. […] Then, the pH value is further decrease to 4 (Experimental Example 570) and 3 (Experimental Example 580), and only the emission peak at about 400 nm is remained, so the observed fluorescence has a color of purple in Experimental Examples 570 and 580. Therefore, the water-soluble peptide fluorescence material of formula (III-10) is able to detect and mark locations of acidic cells by change of the color.
Continuing in FIG. 7, which illustrates a fluorescence intensity and an emission wavelength of the water-soluble peptide fluorescence material of formula (III-21) at different pH values. In Experimental Examples 710, 720, 730, 740, 750, 760, 770 and 780, the water-soluble peptide fluorescence material of formula (III-21) is respectively placed in environments having a pH value of 10, 9, 8, 7, 6, 5, 4 and 3 for testing. In Experimental Examples 710 to 750, the water-soluble peptide fluorescence material is placed in environments having the pH value of 10 to 6. […] However, the fluorescence intensity of Experimental Examples 780 is decreased when the pH value is decreased from 4 to 3.
Continuing in FIG. 8, which illustrates a fluorescence intensity and an emission wavelength of the water-soluble peptide fluorescence material of formula (III-22) at different pH values. In Experimental Examples 810, 820, 830, 840, 850, 860, 870 and 880, the water-soluble peptide fluorescence material of formula (III-22) is respectively placed in environments having a pH value of 10, 9, 8, 7, 6, 5, 4 and 3 for testing. In Experimental Examples 810 to 850, the water-soluble peptide fluorescence material is respectively placed in environments having the pH value of 10 to 6. […] In addition, the fluorescence intensity of Experimental Example 860 (pH=5) is 90 times of the fluorescence intensity of Experimental Example 810 […], which represents that the water-soluble peptide fluorescence material has obvious light-emitting interval and easily to identify and detect positions of the acidic cells.
FIG. 10 illustrates a fluorescence intensity and an emission wavelength of the water-soluble peptide fluorescence material of formula (III-23) at different pH values. In Experimental Examples 1010, 1020, 1030, 1040, 1050, 1060, 1070 and 1080, the water-soluble peptide fluorescence material of formula (III-23) is respectively placed in environments having a pH value of 10, 9, 8, 7, 6, 5, 4 and 3 for testing. In Experimental Examples 1010 to 1050, the water-soluble peptide fluorescence material is respectively placed in environments having the pH value of 10 to 6. […] The water-soluble peptide fluorescence material not only provides obvious marker, but also achieves the same effect of the fluorescence at a low concentration, and thereby reduces the costs.
FIG. 11 illustrates a fluorescence intensity and an emission wavelength of the water-soluble peptide fluorescence material of formula (III-27) at different pH values. […]

[10] = Fluorescence in co-solvents of glycerol and methanol (aggregation-induced emission); format: physicochemical
From the text: Continuing in FIG. 6, which illustrates a fluorescence intensity and an emission wavelength of the water-soluble peptide fluorescence material of formula (III-14) in co-solvents having different proportions of glycerol and methanol. In Experimental Example 601, 602, 603, 604, 605, 606, 607, 608, 609 and 610, methanol respectively has 0, 10, 20, 30, 40, 50, 60, 70, 80 and 90% of a total volume of the co-solvent. […] Given the above, the fluorescence intensity of the water-soluble peptide fluorescence material of formula (III-14) is increased corresponding to the increase of the volume ratio of methanol, so the water-soluble peptide fluorescence material of formula (III-14) also has a phenomenon of aggregation-induced emission (AIE) in methanol. In addition, the water-soluble peptide fluorescence material of formula (III-14) has the emission wavelength of about 550 nm, so the observed fluorescence has a color of green.

Compound: C[C@H](NC(=O)[C@H](CCC(=O)O)NC(=O)CNC(=O)[C@H](CC(=O)O)NC(=O)[C@H](Cc1ccccc1)NC(=O)CC1C(=O)c2cccc3c(N4CCCCC4)ccc(c23)C1=O)C(=O)O (stereo partly drawn) (X1-FDGEA-OH)
viability [1]: > 50% | viability [2]: > 50% | viability at 48 h, 500 µM [3]: 80% | viability [4]: > 50% | viability [5]: > 50% | fluorescence appearing at the acidic cells [6]: green fluorescence | cellular position of fluorescence compared with Lysotracker ([6]; overlapped picture FIG. 1C): substantially the same as Lysotracker | fluorescence intensity compared with Lysotracker ([6]; same concentration, acidic cells in living cells): greater than that of the red fluorescence of Lysotracker | viability [7]: > 50% | viability [8]: > 50% | ratio of fluorescence intensity pH 3 to pH 7 ([9]; Experimental Examples 240 and 280): 25.5 times | fluorescence intensity ([9]; pH 3): about 900 fluorescent units | fluorescence intensity ([9]; pH 4): about 500 fluorescent units | color of fluorescence ([9]; pH 5): green | emission peak ([9]; pH 5): about 550 nm | fluorescence intensity ([9]; pH 5): about 350 fluorescent units | fluorescence intensity ([9]; pH 6, compared to pH 10 to 7): no significant change | fluorescence intensity ([9]; pH 7, neutral environment): slightly increased | fluorescence intensity ([9]; pH 10, 9 and 8): low fluorescence intensities

fluorescence intensity with increase of the volume ratio of methanol ([10]; aggregation-induced emission): increased | color of observed fluorescence ([10]; glycerol/methanol co-solvent): green | emission wavelength ([10]; glycerol/methanol co-solvent): about 550 nm | fluorescence intensity ([10]; methanol 90% (Experimental Example 610), methanol 0 to 90% tested): largest fluorescence intensity
Compound: O=C(CN1C(=O)c2cccc3c(N4CCCCC4)ccc(c23)C1=O)NC(Cc1ccccc1)C(=O)NC(Cc1ccccc1)C(=O)O (stereo not drawn) [III-14]

Compound: CN(C)CCNC(=O)CCc1ccc2n1[B-](F)(F)[N+]1=C(c3ccc[nH]3)C=CC1=C2 [Lysotracker, reference compound]
fluorescence appearing at the acidic cells [6]: red fluorescence
